Assay results published in patent US20150266850A1 (E.I.DU PONT DE NEMOURS AND COMPANY, priority 2012, published 2015).
Marks after values point to notes of the source that are not given here.

Assays:
Format in all cases: in vivo
Conditions in all cases: 100 = 100% disease control
[1] = tested on: Erysiphe graminis f. sp. tritici; assay: Test A: wheat powdery mildew, preventive spray on wheat seedlings, visual disease rating
Outline: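 Wheat seedlings sprayed to run-off with compound in acetone/water with 250 ppm Trem 014 (200 ppm ≈ 800 g/ha; some at 40 or 50 ppm), inoculated next day with spore dust. After 8 days at 20° C, disease control rated visually, 0–100% relative to controls.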

[2] = tested on: Puccinia recondita f sp. tritici; assay: Test B: wheat leaf rust, preventive spray on wheat seedlings, visual disease rating
Outline: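 Test suspension in acetone/water 50/50 with 250 ppm Trem® 014, sprayed to run-off on wheat seedlings at 200 ppm (≈800 g/ha), or 40 or 50 ppm where marked. Inoculated next day with spores, held 24 h saturated at 20° C, then 7 days at 20° C; disease control rated visually, 0–100 versus controls.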

Septoria tritici = assay: Test C: wheat leaf blotch, preventive spray on wheat seedlings, visual disease rating
Outline: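 Compounds in acetone (11% of final volume) suspended in acetone/water 50/50 with 250 ppm Trem® 014; 200 ppm (≈800 g/ha), some at 40 or 50 ppm, sprayed to run-off. Septoria tritici inoculated next day; 48 h saturated at 24° C., then 19 days at 20° C.; visual rating, 0–100% control vs untreated.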

Septoria nodorum = assay: Test D: wheat glume blotch, preventive spray on wheat seedlings, visual disease rating
Outline: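 Preventive test: wheat seedlings sprayed to run-off with compound suspension (acetone/water with 250 ppm Trem 014; 200 ppm, some at 40 or 50 ppm), inoculated with Septoria nodorum next day. Held 48 h saturated at 20° C, then 7 days at 20° C; visual rating 0-100% disease control versus controls.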

Botrytis cinerea = assay: Test E: tomato botrytis, preventive spray on tomato seedlings, visual disease rating
Excerpt: General protocol for preparing test suspensions for Tests A-E: the test compounds were first dissolved in acetone in an amount equal to 11% of the final volume and then suspended at the desired concentration (in ppm) in acetone and purified water (50/50 mix by volume) containing 250 ppm of the surfactant Trem® 014 (polyhydric alcohol esters). The resulting test suspensions were then used in Tests A-E. Spraying a 200 ppm test suspension to the point of run-off on the test plants was the equivalent of a rate of 800 g/ha.
The test suspension was sprayed to the point of run-off on tomato seedlings. The following day the seedlings were inoculated with a spore suspension of Botrytis cinerea (the causal agent of tomato botrytis) and incubated in saturated atmosphere at 20° C. for 48 h, and then moved to a growth chamber at 27° C. for 3 additional days, after which time disease ratings were visually made.
Results for Tests A-E are given in Table A. In the Table, a rating of 100 indicates 100% disease control and a rating of 0 indicates no disease control (relative to the controls). A dash (-) indicates no test results. All results are for 200 ppm except where followed by an “*”, which indicates 40 ppm or “**”, which indicates 50 ppm.

Structure (SMILES) | Test A disease control rating ([1]; 40 ppm (*)) | Test B disease control rating ([2]; 40 ppm (*)) | Test C disease control rating (Septoria tritici; 40 ppm (*)) | Test D disease control rating (Septoria nodorum; 40 ppm (*)) | Test E disease control rating (Botrytis cinerea; 40 ppm (*)) | Test A disease control rating ([1]; 200 ppm) [%] | Test B disease control rating ([2]; 200 ppm) [%] | Test C disease control rating (Septoria tritici; 200 ppm) [%] | Test D disease control rating (Septoria nodorum; 200 ppm) [%] | Test E disease control rating (Botrytis cinerea; 200 ppm) [%]
COC(=O)NCc1cc(-c2ccn(-c3ccc(Br)cc3Br)n2)ccc1C [Cmpd 62] | 100* % | 100* % | 97* % | 100* % | 100* % | – | – | – | – | –
COC(=O)NCc1cc(-c2ccn(-c3ccc(Cl)cc3Br)n2)ccc1C [Cmpd 63] | 100* % | 100* % | 96* % | 100* % | 99* % | – | – | – | – | –
COC(=O)NCc1cc(-c2ccn(-c3ccc(F)cc3F)n2)ccc1C [Cmpd 64] | 100* % | 100* % | 97* % | 100* % | 74* % | – | – | – | – | –
COC(=O)NCc1cc(-c2ccn(-c3ccc(Cl)cc3F)n2)ccc1C [Cmpd 65] | 100* % | 100* % | 98* % | 100* % | 94* % | – | – | – | – | –
COC(=O)NCc1cc(-n2ncc(-c3ccc(F)cc3F)n2)ccc1C [Cmpd 67] | 100* % | 100* % | 98* % | 100* % | 33* % | – | – | – | – | –
COC(=O)NCc1cc(-n2ncc(-c3ccc(OC)cc3Cl)n2)ccc1C [Cmpd 68] | 100* % | 100* % | 99* % | 100* % | 77* % | – | – | – | – | –
COC(=O)NCc1cc(-n2ccc(-c3ccc(C#N)cc3C)n2)ccc1C [Cmpd 69] | 100* % | 100* % | 66* % | 100* % | 0* % | – | – | – | – | –
COC(=O)NCc1cc(-n2ccc(-c3ccc(Cl)cc3O)n2)ccc1C [Cmpd 71] | – | – | – | – | – | 90 | 99 | 51 | 100 | 8
COC(=O)NCc1cc(-n2ccc(-c3ccc(Cl)cc3OCC#N)n2)ccc1C [Cmpd 72] | 93* % | 100* % | 90* % | 100* % | 0* % | – | – | – | – | –
CCOc1ccc(-c2ccn(-c3ccc(C)c(CNC(=O)OC)c3)n2)c(Cl)c1 [Cmpd 76] | 100* % | 100* % | 99* % | 100* % | 0* % | – | – | – | – | –
CCOc1cc(Cl)ccc1-c1ccn(-c2ccc(C)c(CNC(=O)OC)c2)n1 [Cmpd 77] | 100* % | 100* % | 99* % | 100* % | 0* % | – | – | – | – | –
COC(=O)NCc1cc(-n2ccc(-c3ccc(Cl)cc3Br)n2)ccc1C [Cmpd 80] | 97* % | 100* % | 58* % | 100* % | 81* % | – | – | – | – | –
COC(=O)NCc1cc(-n2ncc(-c3ccc(Cl)cc3Cl)n2)ccc1C [Cmpd 86] | 99* % | 100* % | 93* % | 100* % | 54* % | – | – | – | – | –
COC(=O)NCc1cc(-n2ncc(-c3ccc(F)cc3Cl)n2)ccc1C [Cmpd 87] | 98* % | 100* % | 88* % | 100* % | 61* % | – | – | – | – | –
